Source: patent US20200337304A1, “ANTIMICROBIAL PARTICLES AND SANITIZATION METHODS” (priority 2017, published 2020)

Tests used:
Listeria innocua = assay: Inactivation of bacteria in simulated wash water; assay type: cell-based
Experimental: The activity and inactivation of bacteria in simulated wash water exposed to the functionalized particles and conventional chlorine sanitizers were evaluated and compared. More than a 5-log reduction of Listeria innocua in wash water was obtained after a 0.5-min exposure to YCWPs based sanitizer at the concentration of 0.1 mg/mL. In comparison, the conventional chlorine-based sanitizer (sodium hypochlorite) needed 1.5 min to achieve a 5-log reduction. In the presence of organic matter (COD=2000 mg/L), more than 5 log reduction of Listeria innocua in wash water was obtained after 5 min exposure to YCWPs based sanitizer.

L. innocua 3-day biofilm = assay: Inactivation of 3-day cultured biofilm on plastic surface, plate counting assay; assay type: cell-based, Listeria innocua; conditions: 1-hour exposure
Experimental: FIG. 6A is a graph illustrating inactivation of L. innocua in 3-day biofilm after 1-hour exposure: (a) metabolic activity of biofilm; (b) results of plate counting assay
The antimicrobial activity was characterized based on the metabolic activity of the biofilm measured using Resazurin and a plate counting assay.
The metabolic activity of biofilm after a 1-hour exposure to the particulate sanitizer was evaluated. The time required to achieve maximum fluorescence intensity indicated the relative level of metabolic activity of bacterial cells under different incubation conditions. Listeria biofilms that were incubated with PBS were treated as a control. […] The conventional sanitizer (sodium hypochlorite) only achieved 3-log reduction after a 1-hour exposure.
Pre-formed biofilms were treated with either a selected particle-based sanitizer or with a conventional sanitation procedure for the sanitation of a food contract surface. […] Quantification of the treatment was assessed based on measuring the changes in the metabolic activity of bacterial cells. Quantification of the residual biomass was conducted using crystal violet staining and calcofluor labeling and the standard plate counting of the bacterial cells after dispersing the biofilms using an ultrasonic washer.

E. coli O157:H7 = assay: Inactivation of bacteria on fresh produce (lettuce leaf) surfaces; assay type: cell-based, Escherichia coli O157:H7; conditions: Example 2; 20-min exposure, YCWPs@halamine 0.25 mg/ml; sodium hypochlorite 20 ppm free chlorine
Experimental: FIG. 6B is a graph illustrating inactivation of E. coli O157:H7 on fresh produce surfaces after 20-min exposure to YCWPs@halamine (0.25 mg/ml).
The inactivation of bacteria on fresh produce surfaces was also evaluated. These YCWPs based sanitizer was also found to be effective in causing more than 5 log reductions in E. coli O157:H7 on the surface of lettuce leaves as shown in FIG. 6B. The conventional chlorine-based sanitizer (sodium hypochlorite, 20 ppm free chlorine) achieved less than 2-log reduction of the inoculated bacteria.
To inoculate fresh produce, samples (e.g., spinach, lettuce, tomato, and orange) were first rinsed with 70% ethanol and dried at 25° C. before sample preparation. Fresh produce samples were then prepared by cutting spinach and lettuce leaves into disks with 1 cm of diameter and tomato and orange skins into squares of 9 cm^2. […]
After inoculation and incubation, the meat and fresh produce samples were transferred to a simulated wash bath with added particle-based sanitizers. […] The samples were stirred in a shaking bath a speed of 250 rpm for a pre-determined period (1, 2, 5, and 10 min). […]
To quantify the reduction in microbial count, the samples after treatment were transferred to sterile tubes containing silicon-carbide beads and 10 mL of PBS, and vortexed for 60 seconds to recover the attached bacteria. […]

## OCl [sodium hypochlorite]
Listeria innocua; COD=2000 mg/L, 20 ppm free chlorine, 20 minutes of exposure
  reduction of bacterial population in wash water in the presence of organic matter: did not reduce the bacterial population
Listeria innocua; simulated wash water
  time needed to achieve a 5-log reduction of Listeria innocua in wash water: 1.5 min
L. innocua 3-day biofilm
  reduction of the bacterial population in the 3-day biofilm: 3 log
E. coli O157:H7
  reduction in E. coli O157:H7 on the surface of lettuce leaves: less than 2 log
